Values quoted from earlier work, collected in patent publication US20190307734A1 (Zhuhai Beihai Biotech Co., Ltd., priority 2016, published 2019).

Legend:
[1] = test system: cytochrome P450 3A4 (CYP3A4)
CYP 2C9 = CYP 2C9 (Homo sapiens, UniProt P11712); conditions: in vitro
[2] = not given; remark: listed apart in the source
p-glycoprotein = p-glycoprotein (Homo sapiens, UniProt P08183); conditions: in vitro
CYP 2D6 = CYP 2D6 (Homo sapiens, UniProt P10635); conditions: in vitro
CYP 2C19 = CYP 2C19 (Homo sapiens, UniProt P33261); conditions: in vitro
Chain of CYP 2C19 (P33261 whole entry): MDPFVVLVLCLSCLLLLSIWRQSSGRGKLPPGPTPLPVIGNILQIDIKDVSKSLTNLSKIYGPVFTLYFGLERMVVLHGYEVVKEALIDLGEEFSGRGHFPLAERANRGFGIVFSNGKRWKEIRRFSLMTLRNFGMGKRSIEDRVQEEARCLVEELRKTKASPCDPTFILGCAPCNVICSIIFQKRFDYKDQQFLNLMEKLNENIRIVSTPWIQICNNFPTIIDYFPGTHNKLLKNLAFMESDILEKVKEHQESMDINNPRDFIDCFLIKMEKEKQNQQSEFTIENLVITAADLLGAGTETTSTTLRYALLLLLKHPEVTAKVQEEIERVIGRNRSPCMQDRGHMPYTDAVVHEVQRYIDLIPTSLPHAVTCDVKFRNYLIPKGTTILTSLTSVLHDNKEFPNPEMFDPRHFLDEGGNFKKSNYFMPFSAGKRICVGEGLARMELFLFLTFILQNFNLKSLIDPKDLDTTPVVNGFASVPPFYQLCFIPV

Chain of p-glycoprotein (P08183 whole entry): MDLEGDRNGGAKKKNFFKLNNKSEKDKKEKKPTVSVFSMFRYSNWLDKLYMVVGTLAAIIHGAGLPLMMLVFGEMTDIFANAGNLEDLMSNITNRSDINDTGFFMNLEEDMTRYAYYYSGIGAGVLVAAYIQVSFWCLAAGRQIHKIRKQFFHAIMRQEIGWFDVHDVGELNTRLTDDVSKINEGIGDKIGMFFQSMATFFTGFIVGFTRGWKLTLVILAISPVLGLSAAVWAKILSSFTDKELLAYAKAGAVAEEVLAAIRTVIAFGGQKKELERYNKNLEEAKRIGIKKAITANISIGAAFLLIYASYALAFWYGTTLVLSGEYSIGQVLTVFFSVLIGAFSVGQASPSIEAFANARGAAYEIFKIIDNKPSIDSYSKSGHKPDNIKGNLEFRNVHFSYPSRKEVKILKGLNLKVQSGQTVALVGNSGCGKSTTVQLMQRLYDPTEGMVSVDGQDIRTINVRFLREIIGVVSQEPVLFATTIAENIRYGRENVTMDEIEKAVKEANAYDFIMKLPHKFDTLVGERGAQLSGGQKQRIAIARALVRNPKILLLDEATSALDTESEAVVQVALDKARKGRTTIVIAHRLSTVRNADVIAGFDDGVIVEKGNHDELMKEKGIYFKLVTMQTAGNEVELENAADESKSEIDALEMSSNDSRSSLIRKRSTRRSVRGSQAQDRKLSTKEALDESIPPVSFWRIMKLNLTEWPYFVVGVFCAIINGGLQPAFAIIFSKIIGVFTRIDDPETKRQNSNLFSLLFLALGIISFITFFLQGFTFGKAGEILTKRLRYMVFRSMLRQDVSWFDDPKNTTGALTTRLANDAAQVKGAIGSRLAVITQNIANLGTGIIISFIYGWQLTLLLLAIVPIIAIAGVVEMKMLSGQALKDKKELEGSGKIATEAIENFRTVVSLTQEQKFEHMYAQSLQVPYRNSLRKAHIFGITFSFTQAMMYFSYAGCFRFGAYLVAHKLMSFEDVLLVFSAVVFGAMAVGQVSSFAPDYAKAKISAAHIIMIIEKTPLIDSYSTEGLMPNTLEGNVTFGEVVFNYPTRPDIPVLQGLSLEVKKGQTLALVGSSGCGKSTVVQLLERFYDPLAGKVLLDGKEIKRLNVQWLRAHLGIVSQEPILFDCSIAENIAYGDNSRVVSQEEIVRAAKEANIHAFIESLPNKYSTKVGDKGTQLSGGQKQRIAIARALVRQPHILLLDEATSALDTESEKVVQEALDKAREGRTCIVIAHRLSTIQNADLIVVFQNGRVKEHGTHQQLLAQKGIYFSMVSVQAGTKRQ
Chain of CYP 2C9 (P11712 whole entry): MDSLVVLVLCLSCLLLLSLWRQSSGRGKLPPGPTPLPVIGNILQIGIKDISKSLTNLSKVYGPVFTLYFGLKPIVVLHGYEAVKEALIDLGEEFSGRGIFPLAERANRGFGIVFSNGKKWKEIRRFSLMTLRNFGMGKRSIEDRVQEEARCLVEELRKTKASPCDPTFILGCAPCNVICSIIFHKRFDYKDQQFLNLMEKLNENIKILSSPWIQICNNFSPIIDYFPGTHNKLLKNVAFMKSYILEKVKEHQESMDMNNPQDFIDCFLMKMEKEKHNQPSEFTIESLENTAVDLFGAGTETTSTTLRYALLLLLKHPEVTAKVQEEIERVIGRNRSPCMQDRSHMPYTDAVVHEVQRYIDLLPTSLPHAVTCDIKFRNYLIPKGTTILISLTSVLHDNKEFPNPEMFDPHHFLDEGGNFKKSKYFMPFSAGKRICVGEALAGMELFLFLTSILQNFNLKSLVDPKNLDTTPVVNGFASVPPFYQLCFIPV
Chain of CYP 2D6 (P10635 whole entry): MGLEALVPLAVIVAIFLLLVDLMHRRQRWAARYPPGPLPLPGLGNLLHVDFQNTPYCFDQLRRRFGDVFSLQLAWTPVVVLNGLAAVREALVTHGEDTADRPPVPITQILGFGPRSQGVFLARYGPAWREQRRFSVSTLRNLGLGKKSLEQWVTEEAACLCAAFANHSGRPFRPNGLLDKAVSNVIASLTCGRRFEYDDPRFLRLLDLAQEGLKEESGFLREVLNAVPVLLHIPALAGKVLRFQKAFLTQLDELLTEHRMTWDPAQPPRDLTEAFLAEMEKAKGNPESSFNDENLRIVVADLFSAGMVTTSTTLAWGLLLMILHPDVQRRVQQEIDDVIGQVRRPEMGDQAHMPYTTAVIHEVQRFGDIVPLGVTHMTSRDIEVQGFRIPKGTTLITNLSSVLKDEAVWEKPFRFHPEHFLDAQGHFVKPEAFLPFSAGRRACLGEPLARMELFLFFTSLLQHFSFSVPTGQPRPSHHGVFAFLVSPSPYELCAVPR

| SMILES | protein bound to human plasma (human plasma) [%] | induction or inhibition of CYP3A4 enzyme ([1]; Hesketh et al., Cancer 2016) | inhibition of CYP 3A4 ([1]; in vitro) | absorption after oral dosing | inhibition of CYP 2C9 (CYP 2C9) | solubility at physiological pH ([2]; pH 7.4) [mcg/ml] | solubility in water ([2]; water) | inhibition of p-glycoprotein (p-glycoprotein) | inhibition of CYP 2D6 (CYP 2D6) | inhibition of CYP 2C19 (CYP 2C19) | solubility in aqueous solution, pH dependence ([2]; aqueous solution) | solubility in common pharmaceutical solvents ([2]; ethanol, propylene glycol, 40% hydroxypropyl beta cyclodextrin) |
| --- | --- | --- | --- | --- | --- | --- | --- | --- | --- | --- | --- | --- |
| C[C@@H](OC[C@@]1(c2ccccc2)CC[C@]2(CCC(=O)N2)CN1)c1cc(C(F)(F)F)cc(C(F)(F)F)c1 [Rolapitant, rolapitant] | 99.8 | does not induce or inhibit | did not inhibit | rapidly absorbed | did not inhibit | < 4 | practically insoluble | did not inhibit | did not inhibit | did not inhibit | – | – |
| C[C@@H](OC[C@@]1(c2ccccc2)CC[C@]2(CCC(=O)N2)CN1)c1cc(C(F)(F)F)cc(C(F)(F)F)c1.Cl [Rolapitant hydrochloride, rolapitant hydrochloride] | – | – | – | – | – | – | – | – | – | – | pH-dependent and is more soluble at lower pH | good solubility |
